We go through three compounds from patent publication US20080009534A1, “S[…] DERIVATIVES USEFUL AS AN[…] A[…] AND METHOD” (Bristol-Myers Squibb Company, priority 2006, published 2008).

In one series the target is T1, human PPARα receptor (Homo sapiens, UniProt Q07869).
T1 construct: transiently transfecting GAL4-hPPARα-LBD or GAL4-hPPARγ-LBD constructs; expressed in transfected cells; host or cells: HEK293 cells stably expressing 5×GAL4RE-Luciferase
T1 sequence (Q07869 239-466 limits assumed): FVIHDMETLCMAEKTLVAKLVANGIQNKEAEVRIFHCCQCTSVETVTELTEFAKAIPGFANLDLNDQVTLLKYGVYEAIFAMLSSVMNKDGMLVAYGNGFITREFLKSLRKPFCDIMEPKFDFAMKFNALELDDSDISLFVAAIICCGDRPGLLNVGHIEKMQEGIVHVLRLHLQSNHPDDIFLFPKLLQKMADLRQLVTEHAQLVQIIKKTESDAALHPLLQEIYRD
Kind of series: In vitro PPAR agonist functional assay, GAL4-hPPARα-LBD transactivation in HEK293 cells (luciferase). Format: cell-based. The conditions noted are these: for EC50: GAL4-hPPARα-LBD in HEK293 cells, half-maximal fold induction; for Emax at 1 µM: HEK293, activity at 1 μM relative to GW2331 at 1 μM, read-out: PPARα % efficacy (intrinsic activity). The procedure: (§1) In vitro PPAR agonist functional assays were performed by transiently transfecting GAL4-hPPARα-LBD or GAL4-hPPARγ-LBD constructs respectively into HEK293 (human embryonic kidney) cells stably expressing 5×GAL4RE-Luciferase. Data were normalized for efficacy at 1 μM to known agonists (BRL-49653 for hPPARγ and GW-233 1 for hPPARα). Agonist binding results in an increase in luciferase enzyme activity which can be monitored by measuring luminescence upon cell lysing and the addition of luciferin substrate. EC50 values (μM) for PPARα or γ agonist activity were calculated as the concentration of the test ligand (μM) required for the half-maximal fold induction of HEK293 cells. The “intrinsic activity” of a test ligand is defined as its activity at 1 μM (expressed as a percentage) relative to the activity of the primary standards (GW2331 for PPARα and BRL-49653/rosiglitazone for PPARγ respectively, both tested at 1 μM). […] The ratios of the PPARα:PPARγ EC50 values of compounds of formula I are between 1:2 and 2:1 in this functional assay.

In a further series the test system is db/db mice. Kind of series: db/db mouse model, plasma glucose and triglycerides after 14 days of oral dosing. Format: in vivo. Conditions: female db/db mice, 10 mg/kg orally once daily for 14 days, fasted plasma on day 15. The method, then:
8 week old female db/db mice were dosed orally once daily for 14 days at 10 mg/kg with the Example 1a-1c compounds using a vehicle comprised of 5% 1-methyl-pyrrolidinone, 20% polyethylene glycol (PEG400) and 75% 20 mM dibasic sodium phosphate. Plasma samples were obtained from mice fasted overnight (18 hours after last administration of compound) on day 15. The plasma glucose and triglycerides levels were determined and the percentage reductions in both parameters of drug-treated animal relative to vehicle-treated animals are shown in the table below.
It is known by one skilled in the art that the compounds of the present invention normalize plasma glucose levels and decrease plasma triglycerides at doses ≧10 mg/kg in rodent models of type 2 diabetes (e.g. the db/db mouse). The typical administration of said compounds is expected to be between 0.1 to 2,000 mg/day in the clinical setting, and is preferably between 0.5 to 100 mg/day. (Reference for db/db mouse as an in vivo rodent model for antidiabetic efficacy: T. Harrity et al, Diabetes, 2006, 55, 240-248).

A further series deals with T2, human PPARγ receptor (Homo sapiens, UniProt P37231).
T2 construct: transiently transfecting GAL4-hPPARα-LBD or GAL4-hPPARγ-LBD constructs; expressed in transfected cells; host or cells: HEK293 cells stably expressing 5×GAL4RE-Luciferase
T2 sequence (P37231 238-503 limits assumed): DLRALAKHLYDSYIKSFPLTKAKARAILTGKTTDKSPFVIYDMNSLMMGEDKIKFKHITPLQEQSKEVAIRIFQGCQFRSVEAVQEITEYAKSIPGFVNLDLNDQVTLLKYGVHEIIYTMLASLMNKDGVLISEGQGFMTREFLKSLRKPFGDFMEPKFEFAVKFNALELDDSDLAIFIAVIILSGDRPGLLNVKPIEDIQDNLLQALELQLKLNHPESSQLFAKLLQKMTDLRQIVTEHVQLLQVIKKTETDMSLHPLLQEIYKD
Description: In vitro PPAR agonist functional assay, GAL4-hPPARγ-LBD transactivation in HEK293 cells (luciferase). The format is cell-based. The conditions noted are these: for EC50: GAL4-hPPARγ-LBD in HEK293 cells, half-maximal fold induction; for Emax at 1 µM: HEK293, activity at 1 μM relative to BRL-49653/rosiglitazone at 1 μM, read-out: PPARγ % efficacy (intrinsic activity). The procedure:
as §1

The term EC50 denotes the concentration at which the effect is half-maximal. A low value points to an effect from little substance. As usually defined, the melting point is the temperature of the solid-liquid transition.

Compound `Cc1ccc(OC(=O)N(CC(=O)O)[C@@H](C)c2ccc(OCc3nc(-c4ccccc4)oc3C)cc2)cc1F` [Compound 1a] yielded a melting point of 152.6 °C. At human PPARα receptor, the EC50 turned out to be 6 ± 1 nM and the Emax at 1 µM came to 92%. Further, in the series on db/db mice, the “% Reduction in Plasma Glucose vs Vehicle-control group” value (“% Reduction in Plasma Glucose” below) is recorded as −45% and the “% Reduction in Plasma Triglycerides vs Vehicle-control group” value (shortened to “% Reduction in Plasma Triglycerides”) is −45%. At human PPARγ receptor, the EC50 was 3 ± 1 nM and the Emax at 1 µM was 128%.

As to `Cc1cc(OC(=O)N(CC(=O)O)[C@@H](C)c2ccc(OCc3nc(-c4ccccc4)oc3C)cc2)ccc1F` [Compound 1b], at human PPARα receptor, the EC50 was found to be 8 ± 2 nM and the Emax at 1 µM is 95%. In the series with db/db mice, the “% Reduction in Plasma Glucose” value is reported as −34% and the “% Reduction in Plasma Triglycerides” value is −50%. At human PPARγ receptor, the EC50 was found to be 4 ± 2 nM and the Emax at 1 µM came to 126%.

`COc1cccc(OC(=O)N(CC(=O)O)[C@@H](C)c2ccc(OCc3nc(-c4ccc(C)cc4)oc3C)cc2)c1` [Compound 1c]: at human PPARα receptor, it took 6 ± 2 nM to reach a half-maximal effect (EC50) and the Emax at 1 µM is 82%. Further, in the series on db/db mice, the “% Reduction in Plasma Glucose” value is on record as −34% and the “% Reduction in Plasma Triglycerides” value is reported as −61%. For the same compound, at human PPARγ receptor, the half-maximal effective concentration (EC50) came to 5 ± 2 nM and the Emax at 1 µM turned out to be 124%.
